Measurements reported in patent publication US20230204599A1, “TRIAGING METHOD USING CELL FREE NUCLEOSOME LEVELS” (Belgian Volition SRL (BE/BE), priority 2020, published 2023).

Columns and labels:
[1] = cited from earlier work
[2] = tested on: white cells in fresh healthy whole blood; assay: NETs formation induced in fresh healthy whole blood, H3.1-nucleosome ELISA and Bioanalyzer electrophoresis of plasma; format: cell-based, human; details: 2 healthy volunteers
Excerpt: We collected whole blood samples from two healthy volunteers, in whom low levels of circulating NET material would be expected, in EDTA plasma blood collection tubes and in heparin plasma blood collection tubes. The two EDTA plasma blood collection tubes were centrifuged immediately to separate the cellular and plasma fractions to minimise contamination by large chromatin (including NET material) and the plasma was transferred to cryotubes and frozen. The two heparin plasma blood collection tubes were incubated at room temperature for 1 hour with gentle rotation of the tubes. The tubes were then centrifuged and the plasma was transferred to cryotubes and frozen.
The samples were assayed for nucleosomes containing histone isoform H3.1 (H3.1-nucleosomes) using an ELISA procedure in duplicate. In brief, 20 μl of sample were added to a microtiter well containing magnetic particles precoated with an anti-histone H3.1 antibody. The sample was incubated and the magnetic particles were isolated and washed. An anti-nucleosome antibody directed to bind to a conformational nucleosome epitope conjugated to horse radish peroxidase was added to the magnetic particles. The particles were incubated and then isolated and washed. The bound anti-nucleosome antibody was measured using a coloured substrate reaction. […]

sepsis induced in mice = details: cited from earlier work
[3] = single 25 mg/m^2 bolus intravenous dose

## COc1cccc2c1C(=O)c1c(O)c3c(c(O)c1C2=O)C[C@@](O)(C(=O)CO)C[C@@H]3O[C@H]1C[C@H](N)[C@H](O)[C@H](C)O1 [doxorubicin]
[1]; [3]
  serum concentration: 10000 ng/mL
  time serum level remains above 3 μg/ml: around 4 days

## heparin
[2]; blood collection tubes incubated 1 hour at room temperature
  NET material level in plasma (H3.1-nucleosome ELISA): high
[2]; retention time approximately 110 seconds
  level of NET material in plasma (DNA fragment size, Bioanalyzer): high

## DNase
[1]; in vivo, iv
  half-life: 3 to 4 h

## COc1cccc2c1C(=O)c1c(O)c3c(c(O)c1C2=O)C[C@@](O)(C(=O)CO)C[C@@H]3O[C@H]1C[C@H](N)[C@@H](O)[C@H](C)O1 [epirubicin]
Sepsis induced in mice; lethal sepsis by cecal ligation and puncture, death in 100% of mice within 72 hours without treatment
  survival: 75%
Sepsis induced in mice; septic mice
  inflammation measured by circulating inflammatory biomarkers: reduction in inflammation
